Experimental data taken from patent US10342866B2, “Compositions and methods for immunotherapies comprising small molecule integrin receptor-ligand agonist adjuvants” (7 Hills Interests LLC, priority 2015, dated 2019).
pEC50: −log10 of the molar value.

Assays:
α4β1 (VLA-4) = molecular target: T1, α4β1 (VLA-4) (Homo sapiens, UniProt P05556+P13612); experiment: Static cell adhesion assay, α4β1-mediated adhesion to VCAM-1; format: cell-based; conditions: Jurkat cells on sub-optimal VCAM-1 coating; PBS, 1 mM MgCl2, 50% FBS; read-out: Activity (EC50) in enhancing adhesion mediated by α4β1 (VLA-4)
T1 construct: the cells expressed the appropriate integrin receptor either endogenously (Jurkat/α4β1, K562/α5β1, Jurkat (a4-)/αLβ2, HSB/αLβ2); host or cells: Jurkat
Procedure: (§1) For all assays described, C4 was dissolved in DMSO to make a 1 mM stock solution, and dilutions were made in assay buffer or media to yield the desired final working concentrations in 1% DMSO (vehicle). Human VCAM-1, MAdCAM-1 Fc chimera, ICAM-1, and SDF-1α were purchased from R&D Systems (Minneapolis, Minn.). Human serum fibronectin was purchased from Sigma-Aldrich (St. Louis, Mo.). The cell lines NK-92, Jurkat, K562, and HSB were obtained from American Type Culture Collection (Manassas, Va.) and were maintained in recommended culture media. The mutant Jurkat cell line not expressing α4 integrin (Jurkat [a4-]) was a gift from Dr. David Rose, University of California San Diego, La Jolla, Calif.
(§2) Ligands (VCAM-1, MAdCAM-1, fibronectin, or ICAM-1) in 50 μL of 50 mM Tris-HCl (pH 7.4), 150 mM NaCl, (TBS) were added to wells of a 96-well plate and allowed to coat overnight at 4° C. In order to maximize the window to evaluate agonist activity, a sub-optimal coating concentration of ligand was used. This ligand concentration corresponded approximately to that which would yield ≤5% adhesion as determined by dose-response curves of ligand binding to the appropriate cell type. All assays were performed as previously described. Briefly, 2×10^6 cells were labeled for 30 minutes with calcein-AM (Molecular Probes), washed, resuspended in binding buffer, and added to ligand-coated plates (2×10^5 cells/well) that had been blocked with 2% BSA. The binding buffer was PBS with 1 mM MgCl2 and 50% FBS (VCAM-1 and ICAM-1 assays) or TBS with 1 mM MnCl2 and 50% FBS (MAdCAM-1 and fibronectin assays). After a 30-minute incubation at 37° C., the plates were washed 3 times with the respective binding buffer (except without the serum), the adherent cells were lysed, and fluorescence was measured on a Tecan Safire^2 plate reader. Standard curves were run for each assay to convert fluorescence units to cell number. For each assay, the cells expressed the appropriate integrin receptor either endogenously (Jurkat/α4β1, K562/α5β1, Jurkat (a4-)/αLβ2, HSB/αLβ2) or in recombinant form (K562/α4β7). Generation of the recombinant K562 cell line has been described.

αLβ2 (LFA-1) = molecular target: T2, αLβ2 (LFA-1) (Homo sapiens, UniProt P05107+P20701); experiment: Static cell adhesion assay, αLβ2-mediated adhesion to ICAM-1; format: cell-based; conditions: Jurkat (a4-) or HSB cells on sub-optimal ICAM-1 coating; PBS, 1 mM MgCl2, 50% FBS; read-out: Activity (EC50) in enhancing adhesion mediated by αLβ2 (LFA-1)
T2 construct: the cells expressed the appropriate integrin receptor either endogenously (Jurkat/α4β1, K562/α5β1, Jurkat (a4-)/αLβ2, HSB/αLβ2); endogenous in cells; host or cells: Jurkat (α4-) or HSB
Procedure: as §1, §2

K562 tumor target cells = experiment: NK cytotoxicity testing (NK cell cytolysis of tumor target cells); format: cell-based, human
Procedure: FIG. 1 depicts C4 enhancement of natural killer cell cytolysis of tumor target cells. Freshly isolated CD56+ natural killer cells were isolated from the peripheral blood of a healthy volunteer. Cells were either incubated with vehicle control (DMSO), or indicated concentrations of C4 for 4 h in the presence of tumor target cells (the erythroleukemic cell line K562). Data is presented as a percent increase in tumor cell killing.
FIG. 2 depicts the natural killer cell line NK-92, which was used at different effector to target ratios in the presence or absence of C4 (100 μM). Specific lysis of K562 cells is shown. All data are from triplicate determinations, and graphed as the mean+SD. […]
Human NK cells were purified from leukoreduction filters obtained from healthy volunteers using a CD56+ magnetic bead based enrichment column from Multenyi Biotech (as per manufacturer's instructions). Purified cells were routinely >90% CD56+ positive as measured by flow cytometry. […] After a 4 h incubation at 37° C., 5% CO2, culture supernatants were removed and liberated TDA (2,2′:6′,2″-terpyridine-6,6″-dicarboxylic acid) was detected by addition of DELFIA solution to form EuTDA, and fluorescence was measured on a Tecan Safire 2 multimodal plate reader. […] Results are expressed as the percent specific lysis, calculated as [(experimental signal−spontaneous release)/(total signal−spontaneous release).

Jurkat cells = experiment: SDF-1α mediated migration assay across VCAM-1 coated membranes; format: cell-based; conditions: 4-hour incubation; *p<0.05 (FIG. 3A&B)
Procedure: (§3) FIGS. 3A&B depicts activity of C4 in enhancing SDF-1α mediated migration of Jurkat T cell, an exemplary activated T-cell, across membranes coated with either VCAM-1 or ICAM-1 (*p<0.05).
(§4) Migration assays were performed in […] pore size Transwells (24 well, Costar, Cambridge, Mass.). The upper chambers were pre-coated with […] VCAM-1 or 1 μg/mL ICAM-1 in […] TBS overnight at 4° C. and were then blocked with 2% BSA for 1 hour at room temperature. After washing with migration medium (RPMI-1640 supplemented with 1% FBS, 100 units/mL penicillin and 100 μg/mL streptomycin), upper chambers were loaded with 2×10^5 cells Jurkat cells (VCAM-1 assays) or Jurkat (a4-) cells (ICAM-1 assays) in 160 μL of migration medium. Lower chambers contained 600 μL of migration medium supplemented with 5 µg/mL (VCAM-1 assays) or 1 μg/mL (ICAM-1 assays) SDF-1α to induce chemotaxis. Jurkat cells were mixed with vehicle (1% DMSO) or C4 at the indicated concentrations immediately prior to being added to the upper chamber. After a 4-hour incubation at 37° C., 5% CO2, the upper chambers were removed, and cells in the lower chamber were collected and counted on a hemocytometer. Results are expressed as the total number of cells migrated.

B16-BL6 melanoma = experiment: Checkpoint blockade B16-BL6 melanoma model; format: in vivo, C57BL/6 mice; conditions: C4 intratumorally 1 mg/kg twice weekly for 30 days from day 11
Procedure: C4 was tested in a B16-BL6 melanoma model to determine potential effects on the current checkpoint blockade therapy anti-CTLA-4. Briefly, thirty C57BL/6 were randomized into 3 groups (n=10). C4 was added to a regimen of GVAX®/anti-CTLA-4. Historically, these treatment regimens result in at best, a 20% tumor free survival. On day 0, B16-BL6 cells (2.5×10^4) were injected subcutaneously. GVAX®/anti-CTLA-4 (clone 9H10), or IgG controls, were administered on days 3, 6, and 9. On day 11, C4 treatment was initiated intratumorally twice weekly (1 mg/kg) for 30 days. Vehicle control was added to the IgG group.
The B16-BL6 therapeutic melanoma model is well described. Briefly, B16-BL6 cells (>90% viability) were be resuspended at 2.5×10^5 cells/ml in HBSS (4° C.). At day 0 (d0), C57BL/6 mice (4-6 wk old, female) were inoculated (subcutaneous, flank) with 2.5×10^4 cells (100 μL). At d3, appropriate groups received B16-GM-CSF vaccine (GVAX®). GVAX® preparation followed established procedures. Log-phase growth B16-GM-CSF cells were harvested as described above for B16-BL6 cells, but resuspended at 1×10^7 cells in HBSS (4° C.). Cells were irradiated (5000 rad) and injected into contralateral flanks (100 μL, […]). Also at d3, all animals received anti-CTLA-4 (mAb 9H10, BioXcell, 200 μg/animal, twice weekly). […] Animals were monitored daily for distress and survival was assessed twice daily. […]

Jurkat (a4-) cells = experiment: SDF-1α mediated migration assay across ICAM-1 coated membranes; format: cell-based; conditions: 4-hour incubation, *p<0.05 (FIG. 3A&B)
Procedure: as §3, §4

T1 sequence (P13612 34-1032): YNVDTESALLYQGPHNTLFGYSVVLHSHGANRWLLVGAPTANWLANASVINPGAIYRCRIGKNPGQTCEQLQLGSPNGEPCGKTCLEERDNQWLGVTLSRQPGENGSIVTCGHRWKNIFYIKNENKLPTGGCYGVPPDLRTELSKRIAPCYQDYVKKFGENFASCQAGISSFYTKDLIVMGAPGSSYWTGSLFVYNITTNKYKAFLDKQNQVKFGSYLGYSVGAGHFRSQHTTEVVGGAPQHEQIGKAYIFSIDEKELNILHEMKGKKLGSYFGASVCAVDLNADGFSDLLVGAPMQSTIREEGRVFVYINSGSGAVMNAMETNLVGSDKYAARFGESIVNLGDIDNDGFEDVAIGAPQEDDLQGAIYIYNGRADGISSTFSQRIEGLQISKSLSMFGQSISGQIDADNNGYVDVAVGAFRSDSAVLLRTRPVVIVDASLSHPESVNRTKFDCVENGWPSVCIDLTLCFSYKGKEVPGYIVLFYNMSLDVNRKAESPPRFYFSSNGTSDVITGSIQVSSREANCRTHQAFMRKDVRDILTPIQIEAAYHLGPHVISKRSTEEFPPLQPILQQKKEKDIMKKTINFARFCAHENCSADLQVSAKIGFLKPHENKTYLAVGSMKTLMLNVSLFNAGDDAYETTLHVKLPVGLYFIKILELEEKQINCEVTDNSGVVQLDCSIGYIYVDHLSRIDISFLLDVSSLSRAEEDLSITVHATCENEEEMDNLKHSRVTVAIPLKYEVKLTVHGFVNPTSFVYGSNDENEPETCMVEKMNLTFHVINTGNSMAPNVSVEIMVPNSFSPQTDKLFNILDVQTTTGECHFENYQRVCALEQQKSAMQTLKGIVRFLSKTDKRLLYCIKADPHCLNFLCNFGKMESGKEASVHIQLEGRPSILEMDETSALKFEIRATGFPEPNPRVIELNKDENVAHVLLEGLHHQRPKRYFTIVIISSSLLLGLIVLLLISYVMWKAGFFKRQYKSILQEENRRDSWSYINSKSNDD
T1 sequence (P05556 21-798): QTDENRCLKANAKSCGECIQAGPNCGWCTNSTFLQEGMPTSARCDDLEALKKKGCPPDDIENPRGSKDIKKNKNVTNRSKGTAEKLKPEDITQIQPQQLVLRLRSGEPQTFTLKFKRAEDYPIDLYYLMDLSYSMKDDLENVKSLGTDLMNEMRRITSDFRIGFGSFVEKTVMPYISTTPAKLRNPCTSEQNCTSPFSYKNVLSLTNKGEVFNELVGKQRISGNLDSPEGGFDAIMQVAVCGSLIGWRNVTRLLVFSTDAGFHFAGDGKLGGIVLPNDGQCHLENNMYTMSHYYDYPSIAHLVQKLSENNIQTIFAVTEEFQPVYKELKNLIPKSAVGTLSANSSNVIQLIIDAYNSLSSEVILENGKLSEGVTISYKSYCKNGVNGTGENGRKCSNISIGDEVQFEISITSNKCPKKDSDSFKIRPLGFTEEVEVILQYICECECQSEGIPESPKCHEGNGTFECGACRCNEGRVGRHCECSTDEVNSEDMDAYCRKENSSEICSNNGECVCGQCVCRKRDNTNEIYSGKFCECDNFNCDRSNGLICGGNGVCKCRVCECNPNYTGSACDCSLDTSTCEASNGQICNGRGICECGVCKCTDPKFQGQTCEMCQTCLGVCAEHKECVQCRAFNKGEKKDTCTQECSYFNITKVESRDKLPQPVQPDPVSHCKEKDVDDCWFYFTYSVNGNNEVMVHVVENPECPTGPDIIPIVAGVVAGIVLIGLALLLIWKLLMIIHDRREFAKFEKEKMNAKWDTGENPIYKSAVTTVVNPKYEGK
T2 sequence (P20701 26-1170): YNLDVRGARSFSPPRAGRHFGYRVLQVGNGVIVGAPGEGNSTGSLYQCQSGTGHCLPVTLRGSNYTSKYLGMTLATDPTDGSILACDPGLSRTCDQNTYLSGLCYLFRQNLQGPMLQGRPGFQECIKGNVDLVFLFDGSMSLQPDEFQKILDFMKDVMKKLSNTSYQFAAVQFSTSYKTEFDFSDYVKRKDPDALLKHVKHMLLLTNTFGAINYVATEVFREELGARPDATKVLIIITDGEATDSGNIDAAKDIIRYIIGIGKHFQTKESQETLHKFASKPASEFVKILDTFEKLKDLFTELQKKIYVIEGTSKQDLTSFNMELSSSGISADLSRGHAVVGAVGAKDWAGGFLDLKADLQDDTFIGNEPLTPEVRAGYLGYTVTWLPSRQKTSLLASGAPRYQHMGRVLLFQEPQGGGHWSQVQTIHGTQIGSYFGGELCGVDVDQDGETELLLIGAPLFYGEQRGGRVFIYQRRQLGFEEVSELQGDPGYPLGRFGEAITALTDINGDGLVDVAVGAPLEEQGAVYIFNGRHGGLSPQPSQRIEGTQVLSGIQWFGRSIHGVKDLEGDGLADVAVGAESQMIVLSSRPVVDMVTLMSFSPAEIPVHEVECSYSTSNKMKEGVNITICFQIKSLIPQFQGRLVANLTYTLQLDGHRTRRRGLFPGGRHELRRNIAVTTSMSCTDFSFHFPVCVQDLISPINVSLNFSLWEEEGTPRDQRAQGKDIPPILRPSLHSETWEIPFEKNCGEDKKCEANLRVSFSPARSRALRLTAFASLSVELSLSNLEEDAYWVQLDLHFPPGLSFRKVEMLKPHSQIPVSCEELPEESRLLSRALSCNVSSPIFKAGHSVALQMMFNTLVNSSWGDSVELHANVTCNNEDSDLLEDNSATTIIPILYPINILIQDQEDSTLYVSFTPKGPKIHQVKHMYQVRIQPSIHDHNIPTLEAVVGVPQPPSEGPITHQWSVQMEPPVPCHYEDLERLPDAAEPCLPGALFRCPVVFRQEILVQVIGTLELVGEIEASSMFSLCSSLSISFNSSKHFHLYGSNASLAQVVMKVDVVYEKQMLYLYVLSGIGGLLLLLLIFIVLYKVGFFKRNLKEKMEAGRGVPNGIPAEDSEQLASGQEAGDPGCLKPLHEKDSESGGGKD
T2 sequence (P05107 23-769): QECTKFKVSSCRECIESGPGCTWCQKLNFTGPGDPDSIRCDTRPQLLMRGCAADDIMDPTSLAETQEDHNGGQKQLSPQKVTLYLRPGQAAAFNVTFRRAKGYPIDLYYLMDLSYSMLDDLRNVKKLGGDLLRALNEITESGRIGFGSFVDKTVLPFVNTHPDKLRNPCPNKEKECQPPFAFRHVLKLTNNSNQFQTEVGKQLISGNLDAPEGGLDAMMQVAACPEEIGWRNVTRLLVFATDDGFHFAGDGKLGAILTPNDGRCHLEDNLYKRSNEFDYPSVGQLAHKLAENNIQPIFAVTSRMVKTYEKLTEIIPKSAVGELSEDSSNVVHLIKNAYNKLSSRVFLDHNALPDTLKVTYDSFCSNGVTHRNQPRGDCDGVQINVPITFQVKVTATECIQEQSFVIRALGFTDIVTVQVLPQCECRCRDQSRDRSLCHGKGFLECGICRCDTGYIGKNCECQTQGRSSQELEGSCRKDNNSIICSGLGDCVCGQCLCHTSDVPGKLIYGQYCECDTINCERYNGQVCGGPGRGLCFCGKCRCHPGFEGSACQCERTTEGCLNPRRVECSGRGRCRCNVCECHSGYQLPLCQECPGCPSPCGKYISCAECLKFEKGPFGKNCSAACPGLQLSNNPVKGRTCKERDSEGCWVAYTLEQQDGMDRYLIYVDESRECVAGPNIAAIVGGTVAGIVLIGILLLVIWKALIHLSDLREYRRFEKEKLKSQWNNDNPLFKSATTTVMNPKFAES

`CCCC[C@@H](COC(=O)N(Cc1cccs1)Cc1cccs1)NC(=O)N[C@@H](CC(=O)OC)c1ccc2c(c1)OCO2` [Compound C1, (6S,10S)-methyl 10-(1,3-benzodioxol-5-yl)-6-butyl-3,8-dioxo-1-(2-thienyl)-2-(2-thienylmethyl)-4-oxa-2,7,9-triazadodecan-12-oate] showed a pEC50 (α4β1 (VLA-4)) of 4.49 and a pEC50 (αLβ2 (LFA-1)) of 4.59.
`O=C(OCCOCCOCCOC(=O)N(Cc1cccs1)Cc1cccs1)N(Cc1cccs1)Cc1cccs1` [Compound C4, (ethane-1,2-diylbis(oxy))bis(ethane-2,1-diyl) bis(bis(thiophen-2-ylmethyl)carbamate)] was tested, and the pEC50 (α4β1 (VLA-4)) was 4.85, the “Killing (specific lysis) of K562 tumor target cells by NK-92 cell line” value (K562 tumor target cells; different effector to target ratios, C4 100 μM (FIG. 2)) was “enhanced” and the “Killing of K562 tumor target cells by freshly isolated CD56+ NK cells” value (K562 tumor target cells; human NK cells from healthy volunteer, 4 h, with or without C4 (FIG. 1)) was “enhanced”. The pEC50 (αLβ2 (LFA-1)) was 4.96, the “SDF-1α mediated migration of Jurkat T cells across VCAM-1 coated membranes” value (Jurkat cells) was “enhancing” and the “Long term tumor free survival on addition to GVAX/anti-CTLA-4 (in words)” value (B16-BL6 melanoma) was “significant increase”. For the same compound, the “Median survival benefit on addition to GVAX/anti-CTLA-4 (in words)” value (B16-BL6 melanoma) was “significant median survival benefit” and the “SDF-1α mediated migration of Jurkat T cells across ICAM-1 coated membranes” value (Jurkat (a4-) cells) was “enhancing”.
In the case of `COc1ccc(CN(Cc2ccc(OC)cc2)C(=O)CCCCC(=O)N(Cc2ccc(OC)cc2)Cc2ccc(OC)cc2)cc1` [Compound C2, N^1,N^1,N^6,N^6-tetrakis(4-methoxybenzyl)adipamide], the pEC50 (α4β1 (VLA-4)) was 4.96 and the pEC50 (αLβ2 (LFA-1)) was 4.96.
In the case of `COc1cccc(CN(Cc2cccc(OC)c2)C(=O)CCCCC(=O)N(Cc2cccc(OC)c2)Cc2cccc(OC)c2)c1` [Compound C3, N^1,N^1,N^6,N^6-tetrakis(3-methoxybenzyl)adipamide], the pEC50 (α4β1 (VLA-4)) was 4.96 and the pEC50 (αLβ2 (LFA-1)) was 5.15.
